# Measured values reported in patent US20160220710A1, “COMPOSITIONS AND METHODS FOR DELIVERING PHARMACEUTICAL AGENTS” (THE REGENTS OF THE UNIVERSITY OF MICHIGAN, priority 2015, published 2016).
# Read-outs that look alike come from different tables or passages of the source.
# Tests used:
# alveolar macrophages = tested on: alveolar macrophages; parameters: species or system mice; details: mouse, in vivo, 6 weeks
# Protocol: Clofazimine (CFZ, Sigma-Aldrich, C8895) was prepared in sesame oil (Shirakiku, Japan, or Roland, China) and Powdered Lab Diet 5001 (PMI International, Inc., St. Louis, Mo.) and orally administrated to Wild-type (WT) C57BL/6 mice or IL-1RA^−/− (4-5 week old, Jackson Laboratory, Bar Harbor, Me.) for up to 8 weeks ad libitum as previously described (Baik et al., 2013, supra; Baik et al., 2011, supra). Control mice were fed with the same diet without CFZ. The animal protocol was approved by the University of Michigan's Animal Care and Use Committee in accordance with the National Institutes of Health guidelines (UCUCA #PRO0005111).
# PBS/LPS-instilled CFZ- or control mice were euthanized by exsanguination while deeply anesthetized with an intraperitoneal injection of ketamine/xylazine. The trachea was surgically exposed and cannulated with an 18 G needle and the lungs were lavaged by instilling 1 ml DPBS (Life Technologies) containing 0.5 mM EDTA (Sigma). The retrieved BAL was then centrifuged (10 min at 400×g, 4° C.), and the supernatant was frozen (−80° C.), while the cell pellets were resuspended in 1 ml RPMI 1640 media (Life Technologies). To count total cells, the cells were stained with Trypan blue and counted using a hemocytometer. […]
# RAW 264.7 cells = assay: MitoTracker Red live cell staining (mitochondrial membrane potential); assay type: cell-based, murine; details: 10 μM
# Protocol: Cells were cultured with CFZ or CLDI media for 24 h in chamber slides (Lab Tek) and stained with 150 nM of MitoTracker Red CMXRos (MTR, Life Technologies) in fresh media for 45 min, and then NucBlue Live Cell Stain (Life Technologies) was applied for 10 min for nuclear staining. After incubation, extracellular MTR and NucBlue were washed twice with DPBS and the cells were visualized on a Nikon Eclipse Ti fluorescence microscope (Japan) using Texas Red (Mitotracker) and DAPI (NucBlue) filters. Real-time live cell images were captured every 10 sec for 30 min with the same microscope and video was created using the Nikon Elements software. For confocal imaging of intracellular CLDIs, FM 1-43 (Life Technologies) was used at 3.5 μM (15 min at 37° C.) for membrane staining followed by NucBlue (10 min). After washing with DPBS, cells were visualized using laser-scanning confocal microscopy (Olympus Fluoview 500) fitted with argon (FITC) and HeNe Red lasers (Cy5). Images were taken along the z-axis with a 60× objective at 0.25 μm intervals and the composite Z-stack images were created using the Nikon Elements software.
# [1] = Measurement of CFZ in tissues; assay type: in vivo, mice
# Protocol: Mice (4 week old, male C57Bl6) were purchased from the Jackson Laboratory (Bar Harbor, Me.) and acclimatized for 1 week in a specific-pathogen-free animal facility. Animal care was provided by the University of Michigan's Unit for Laboratory Animal Medicine (ULAM), and the experimental protocol was approved by the Committee on Use and Care of Animals. Clofazimine (CFZ) (C8895; Sigma-Aldrich, St. Louis, Mo.) was dissolved in sesame oil (Roland, China, or Shirakiku, Japan) to achieve a concentration of 3 mg/ml, which was mixed with Powdered Lab Diet 5001 (PMI International, Inc., St. Louis, Mo.) to produce a 0.03% drug to powdered feed (Baik et al., 2013, supra). […]
# CFZ mass was measured as previously reported (Baik et al., 2012, supra; Venkatesan, et al., Arzneim. Forsch. 2007, 57, 472-474). […] CFZ mass was spectrophotometrically determined in methanol (λ=490 nm) and the concentration was calculated using a standard curve generated by spiking extracted tissue of the control (vehicle-only treated) mice tissue with known amounts of drug. The tissue-to-fat partition ratios were computed based on mass of drug in the various tissues relative to mass of drug in total body fat (units: dimensionless; calculated as [mg CFZ/g tissue]/[mg CFZ/g fat]). […] CFZ mass was measured in relation to the measured weight of the tissue or plasma volume.
smiles,measurement,setting,value
"CC(C)/N=c1\cc2n(-c3ccc(Cl)cc3)c3ccccc3nc-2cc1Nc1ccc(Cl)cc1 [CFZ, 3-(p-chloroanilino)-10-(p-chlorophenyl)-2, 10-dihydro-2-isopropyliminophenazine]",CLDI+ alveolar macrophages,alveolar macrophages; C57BL/6 (wild-type),65%
same,CLDI+ alveolar macrophages,alveolar macrophages; IL-1RA−/−,60%
same,mitochondrial membrane potential (Mitotracker Red staining),RAW 264.7 cells,"diffuse cytoplasmic MTR staining, indicative of mitochondrial membrane depolarization"
same,nuclear MTR signal vs untreated cells,RAW 264.7 cells,4 fold
same,CFZ mass retained in spleen,[1]; after the eight week washout period,exceeded its combined mass retained in the other organs
same,Kp,"[1]; male, C57Bl6, mouse, adipose tissue / serum, 10 mg/kg per day, starting at three weeks of oral administration, read-out: CFZ concentration in adipose tissue relative to serum",> 10000
